Measurements as given in patent US20260297060A1, “COMPOUNDS FOR THE DEGRADATION OF MUTANT BRAF” (C4 THERAPEUTICS, INC., priority 2023, published 2026).
Read-outs that look alike come from different tables or passages of the source.

Tests used:
BRAF V600E = molecular target: T1, BRAF V600E (Homo sapiens, UniProt P15056+Q96SW2, V600E); assay: BRAF V600E HiBiT Degradation Assay; type: cell-based
T1 construct: knock-in of the HiBiT tag to the endogenous BRAF V600E locus; host or cells: A375.10 (A375 clonal line, CRISPR HiBiT knock-in at the endogenous BRAF V600E locus)
T1 sequence (P15056 whole entry V600E): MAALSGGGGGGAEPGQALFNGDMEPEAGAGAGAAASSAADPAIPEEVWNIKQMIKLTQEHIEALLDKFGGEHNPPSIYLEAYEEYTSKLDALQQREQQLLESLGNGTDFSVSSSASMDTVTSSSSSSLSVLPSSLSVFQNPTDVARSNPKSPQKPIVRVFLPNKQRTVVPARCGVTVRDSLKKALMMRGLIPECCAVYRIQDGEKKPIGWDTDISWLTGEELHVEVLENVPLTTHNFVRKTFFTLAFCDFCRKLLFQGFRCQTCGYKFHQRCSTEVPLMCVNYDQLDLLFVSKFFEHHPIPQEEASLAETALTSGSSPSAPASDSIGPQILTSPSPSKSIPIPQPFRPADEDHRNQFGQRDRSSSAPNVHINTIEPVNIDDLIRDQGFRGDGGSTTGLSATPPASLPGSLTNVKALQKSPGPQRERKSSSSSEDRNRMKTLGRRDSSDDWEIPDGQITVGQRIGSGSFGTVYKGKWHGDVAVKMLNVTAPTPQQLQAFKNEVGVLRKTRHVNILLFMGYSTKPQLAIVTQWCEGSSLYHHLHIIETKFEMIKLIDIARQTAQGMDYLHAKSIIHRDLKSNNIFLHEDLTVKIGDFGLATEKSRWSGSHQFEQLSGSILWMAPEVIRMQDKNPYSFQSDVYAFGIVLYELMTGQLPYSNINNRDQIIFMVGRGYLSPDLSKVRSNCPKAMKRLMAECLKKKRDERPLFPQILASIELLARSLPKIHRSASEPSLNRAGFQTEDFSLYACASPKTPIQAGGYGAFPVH
T1 sequence (Q96SW2 whole entry): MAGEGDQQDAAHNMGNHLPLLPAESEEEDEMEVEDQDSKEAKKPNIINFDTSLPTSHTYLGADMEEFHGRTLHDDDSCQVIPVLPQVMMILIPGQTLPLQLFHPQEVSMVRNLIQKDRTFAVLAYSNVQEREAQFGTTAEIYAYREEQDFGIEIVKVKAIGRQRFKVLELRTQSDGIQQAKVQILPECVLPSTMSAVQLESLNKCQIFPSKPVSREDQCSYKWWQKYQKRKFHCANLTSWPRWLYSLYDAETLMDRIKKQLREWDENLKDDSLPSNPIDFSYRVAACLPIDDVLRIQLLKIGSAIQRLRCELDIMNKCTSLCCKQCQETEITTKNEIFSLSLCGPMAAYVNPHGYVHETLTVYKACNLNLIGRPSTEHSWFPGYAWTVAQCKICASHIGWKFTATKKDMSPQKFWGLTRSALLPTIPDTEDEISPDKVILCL
T1 sequence (Q16531 whole entry partner): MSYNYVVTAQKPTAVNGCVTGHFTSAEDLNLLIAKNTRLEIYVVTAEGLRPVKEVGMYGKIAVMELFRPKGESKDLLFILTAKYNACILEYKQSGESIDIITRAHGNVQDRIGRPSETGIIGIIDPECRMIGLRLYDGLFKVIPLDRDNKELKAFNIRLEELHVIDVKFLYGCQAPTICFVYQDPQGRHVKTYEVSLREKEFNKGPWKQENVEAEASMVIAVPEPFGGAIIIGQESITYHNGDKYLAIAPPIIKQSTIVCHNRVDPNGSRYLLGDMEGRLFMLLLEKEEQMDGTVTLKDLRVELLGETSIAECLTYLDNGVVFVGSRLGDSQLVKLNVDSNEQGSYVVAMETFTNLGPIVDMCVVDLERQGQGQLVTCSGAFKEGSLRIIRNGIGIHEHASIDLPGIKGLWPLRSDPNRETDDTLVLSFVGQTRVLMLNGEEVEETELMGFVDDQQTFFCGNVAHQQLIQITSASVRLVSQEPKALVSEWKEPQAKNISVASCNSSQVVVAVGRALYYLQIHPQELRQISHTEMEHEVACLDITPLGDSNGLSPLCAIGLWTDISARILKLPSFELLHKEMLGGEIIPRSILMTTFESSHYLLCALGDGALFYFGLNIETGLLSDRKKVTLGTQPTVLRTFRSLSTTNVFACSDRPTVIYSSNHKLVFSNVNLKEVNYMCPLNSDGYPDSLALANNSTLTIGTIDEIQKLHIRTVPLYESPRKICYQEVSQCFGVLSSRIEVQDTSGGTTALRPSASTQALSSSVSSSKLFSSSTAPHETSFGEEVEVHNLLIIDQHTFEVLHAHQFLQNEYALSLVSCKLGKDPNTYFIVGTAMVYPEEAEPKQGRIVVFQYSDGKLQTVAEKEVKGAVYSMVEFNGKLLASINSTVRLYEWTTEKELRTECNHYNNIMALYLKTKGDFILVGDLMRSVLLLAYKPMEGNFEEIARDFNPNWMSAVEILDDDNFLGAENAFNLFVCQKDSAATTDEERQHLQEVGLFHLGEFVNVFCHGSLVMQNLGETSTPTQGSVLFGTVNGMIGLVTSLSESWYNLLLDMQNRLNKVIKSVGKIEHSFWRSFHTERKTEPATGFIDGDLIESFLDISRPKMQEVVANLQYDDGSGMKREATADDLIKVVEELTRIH
Method in brief: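 Endogenous HiBiT knock-in on BRAF V600E in A375 cells (clone A375.10); 11-point half-log series, top 10 μM, 2, 6 or 24 h at 37° C. Lytic HiBiT luminescence, background-subtracted, normalized to DMSO; 4-parameter fit gives DC50, Emax (residual protein) and IP (inflection point).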

A375-NRAS^Q61K cells = assay: CTGlo Cell Viability Assay, A375-NRAS^Q61K (A375.11) cells, 96 hours; type: cell-based, human; details: A375.11 (A375-NRAS^Q61K) cells; for Emax / CTGlo A375.11 96 hours Emax: lowest % viability achieved
Method in brief: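 Viability as CellTiter-Glo ATP luminescence after 96 h compound exposure at 37 °C; A375.11 (BRAF V600E/NRAS Q61K) cells at 250/well, top final concentration 10 μM in half-log steps. Signal was background-corrected and set relative to DMSO controls. A 4-parameter logistic fit gave GI50 (50% crossing) and Emax.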

[1] = A375.10 cells, BRAF V600E, 2 hours, inflection point, read-out: HiBiT-Degradation A375.10 BRAF 2 hours IP
[2] = A375.10 cells, BRAF V600E, 2 hours, read-out: HiBiT-Degradation A375.10 BRAF 2 hours DC50
[3] = A375.10 cells, HiBiT, BRAF V600E, 24 hours, read-out: HiBiT-Degradation A375.10 BRAF 24 hours DC50
[4] = A375.10 cells, HiBiT, BRAF V600E, 24 hours, read-out: HiBiT-Degradation A375.10 BRAF 24 hours IP
[5] = read-out: HiBiT-Degradation A375.10 BRAF 2 hours Emax, A375.10 cells, BRAF V600E, 2 hours, residual protein remaining
[6] = A375.10 cells, BRAF V600E, 2 hours, residual protein remaining
[7] = A375.10 cells, BRAF V600E, 2 hours, residual protein remaining, read-out: HiBiT-Degradation A375.10 BRAF 2 hours Emax

Structure (SMILES) | DC50 (BRAF V600E; [1]) [nM] | DC50 (BRAF V600E; [2]) [nM] | GI50 (A375-NRAS^Q61K cells; Homo sapiens, 96 h) [nM] | Emax (BRAF V600E; [7]) [%] | Emax (A375-NRAS^Q61K cells; Homo sapiens, 96 h) [%] | further results
CCN(C)S(=O)(=O)Nc1ccc(F)c(Oc2ccc3ncn(C4CC5(C4)CN(C4CCC(c6cc7c(cc6F)c(N6CCC(=O)NC6=O)nn7C)CC4F)C5)c(=O)c3c2)c1C#N (single isomer, unassigned) [Compound 299] | < 1000 | 1000 to 10000 | 1000 to 10000 |  | 50 to 90 | DC50 (BRAF V600E; [3]): < 1000 nM; Emax (BRAF V600E; A375.10 cells, HiBiT, BRAF V600E, 24 hours, read-out: HiBiT-Degradation A375.10 BRAF 24 hours Emax): < 50%; DC50 (BRAF V600E; [4]): < 1000 nM; Emax (BRAF V600E; [5]): 50 to 90%
CCN(C)S(=O)(=O)Nc1ccc(F)c(Oc2ccc3ncn(C4CC5(C4)CN(C4CCC(c6cc7c(cc6F)c(N6CCC(=O)NC6=O)nn7C)CC4F)C5)c(=O)c3c2)c1C#N (single isomer, unassigned) [Compound 300] | < 1000 | < 1000 |  |  |  | HiBiT-Degradation A375.10 BRAF 2 hours Emax (BRAF V600E; [6]): *** (<=50%); HiBiT-Degradation A375.10 BRAF 24 hours Emax (BRAF V600E; A375.10 cells, HiBiT, BRAF V600E, 24 hours): *** (<=50%); DC50 (BRAF V600E; [3]): < 1000 nM; DC50 (BRAF V600E; [4]): < 1000 nM; GI50 (A375-NRAS^Q61K cells): < 1000 nM; CTGlo A375.11 96 hours Emax (A375-NRAS^Q61K cells): ** (<90% and >50%)
CCN(C)S(=O)(=O)Nc1ccc(F)c(Oc2ccc3ncn(C4CC5(CCN(C6CCN(c7cc8c(cc7F)c(N7CCC(=O)NC7=O)nn8C)CC6)C5)C4)c(=O)c3c2)c1C#N (single isomer, unassigned) [Compound 307, 6-[2-cyano-3-[[ethyl(methyl)sulfamoyl]amino]-6-fluoro-phenoxy]-3-[6-[1-[3-(2,4-dioxohexahydropyrimidin-1-yl)-5-fluoro-1-methyl-indazol-6-yl]-4-piperidyl]-6-azaspiro[3.4]octan-2-yl]-4-oxo-quinazoline] | < 1000 | 1000 to 10000 | 1000 to 10000 | 50 to 90 | 50 to 90 | 
CN(CCO)S(=O)(=O)Nc1ccc(F)c(Oc2ccc3ncc(C4CC5(C4)CN(C4CCC(c6cc7c(cc6F)c(N6CCC(=O)NC6=O)nn7C)CC4)C5)nc3c2)c1C#N (single isomer, unassigned) [Compound 321, 7-[2-cyano-6-fluoro-3-[[2-hydroxyethyl(methyl)sulfamoyl]amino]phenoxy]-2-[2-[4-[3-(2,4-dioxohexahydropyrimidin-1-yl)-5-fluoro-1-methyl-indazol-6-yl]cyclohexyl]-2-azaspiro[3.3]heptan-6-yl]quinoxaline] | < 1000 | 1000 to 10000 | > 10000 |  | 50 to 90 | HiBiT-Degradation A375.10 BRAF 2 hours Emax (BRAF V600E; [6]): * (>=90%)
CN(CCO)S(=O)(=O)Nc1ccc(F)c(Oc2ccc3ncc(C4CC5(C4)CN(C4CCC(c6cc7c(cc6F)c(N6CCC(=O)NC6=O)nn7C)CC4)C5)nc3c2)c1C#N (single isomer, unassigned) [Compound 322, 7-[2-cyano-6-fluoro-3-[[2-hydroxyethyl(methyl)sulfamoyl]amino]phenoxy]-2-[2-[4-[3-(2,4-dioxohexahydropyrimidin-1-yl)-5-fluoro-1-methyl-indazol-6-yl]cyclohexyl]-2-azaspiro[3.3]heptan-6-yl]quinoxaline] | < 1000 | 1000 to 10000 |  |  |  | HiBiT-Degradation A375.10 BRAF 2 hours Emax (BRAF V600E; [6]): ** (<90% and >50%); GI50 (A375-NRAS^Q61K cells): > 10000 nM; CTGlo A375.11 96 hours Emax (A375-NRAS^Q61K cells): ** (<90% and >50%)
CN(CCO)S(=O)(=O)Nc1ccc(F)c(Oc2ccc3ncn([C@H]4COC5(CCN(C6CC7(C6)CN(c6cc8c(cc6F)c(N6CCC(=O)NC6=O)nn8C)C7)CC5)C4)c(=O)c3c2)c1C#N [Compound 130, (3R)-3-[6-[2-cyano-6-fluoro-3-[[2-hydroxyethyl(methyl)sulfamoyl]amino]phenoxy]-4-oxo-quinazolin-3-yl]-8-[2-[3-(2,4-dioxohexahydropyrimidin-1-yl)-5-fluoro-1-methyl-indazol-6-yl]-2-azaspiro[3.3]heptan-6-yl]-1-oxa-8-azaspiro[4.5]decane] | < 1000 | < 1000 | > 10000 | 50 to 90 | 50 to 90 | 
CCN(C)S(=O)(=O)Nc1ccc(F)c(Oc2ccc3ncc([C@@H]4COC5(CCN(C6CC7(C6)CN(c6cc8c(cc6F)c(N6CCC(=O)NC6=O)nn8C)C7)CC5)C4)nc3c2)c1C#N [Compound 161, (3R)-3-[7-[2-cyano-3-[[ethyl(methyl)sulfamoyl]amino]-6-fluoro-phenoxy]quinoxalin-2-yl]-8-[2-[3-(2,4-dioxohexahydropyrimidin-1-yl)-5-fluoro-1-methyl-indazol-6-yl]-2-azaspiro[3.3]heptan-6-yl]-1-oxa-8-azaspiro[4.5]decane] | < 1000 | > 10000 | 1000 to 10000 |  | 50 to 90 | Emax (BRAF V600E; [5]): 50 to 90%
CN(CCO)S(=O)(=O)Nc1ccc(F)c(Oc2ccc3ncn([C@H]4COC5(CCN([C@H]6C[C@@H](c7cc8c(cc7F)c(N7CCC(=O)NC7=O)nn8C)C6)CC5)C4)c(=O)c3c2)c1C#N [Compound 165, (3R)-3-[6-[2-cyano-6-fluoro-3-[[2-hydroxyethyl(methyl)sulfamoyl]amino]phenoxy]-4-oxo-quinazolin-3-yl]-8-[3-[3-(2,4-dioxohexahydropyrimidin-1-yl)-5-fluoro-1-methyl-indazol-6-yl]cyclobutyl]-1-oxa-8-azaspiro[4.5]decane] | < 1000 | < 1000 | > 10000 | 50 to 90 | 50 to 90 | 
CN(CCO)S(=O)(=O)Nc1ccc(F)c(Oc2ccc3ncn([C@H]4COC5(CCN([C@H]6C[C@@H](c7ccc(NC8CCC(=O)NC8=O)cc7F)C6)CC5)C4)c(=O)c3c2)c1C#N (stereo partly drawn) [Compound 168, (3R)-3-[6-[2-cyano-6-fluoro-3-[[2-hydroxyethyl(methyl)sulfamoyl]amino]phenoxy]-4-oxo-quinazolin-3-yl]-8-[3-[4-[(2,6-dioxo-3-piperidyl)amino]-2-fluoro-phenyl]cyclobutyl]-1-oxa-8-azaspiro[4.5]decane] | < 1000 | < 1000 | > 10000 | 50 to 90 | 50 to 90 | 

More lines, main results first:

DC50 (BRAF V600E; [1]) [nM] | DC50 (BRAF V600E; [2]) [nM] | GI50 (A375-NRAS^Q61K cells; Homo sapiens, 96 h) [nM] | Emax (BRAF V600E; [7]) [%] | Structure (SMILES) | Emax (A375-NRAS^Q61K cells; Homo sapiens, 96 h) [%] | further results
< 1000 | < 1000 | < 1000 | 50 to 90 | CCN(C)S(=O)(=O)Nc1ccc(F)c(Oc2ccc3ncn(C4CC5(CCN(C6CC7(C6)CN(c6cc8c(cc6F)c(N6CCC(=O)NC6=O)nn8C)C7)C5)C4)c(=O)c3c2)c1C#N (single isomer, unassigned) [Compound 301, 6-[2-cyano-3-[[ethyl(methyl)sulfamoyl]amino]-6-fluoro-phenoxy]-3-[6-[2-[3-(2,4-dioxohexahydropyrimidin-1-yl)-5-fluoro-1-methyl-indazol-6-yl]-2-azaspiro[3.3]heptan-6-yl]-6-azaspiro[3.4]octan-2-yl]-4-oxo-quinazoline] | 50 to 90 | 
 | < 1000 |  |  | CCN(C)S(=O)(=O)Nc1ccc(F)c(Oc2ccc3ncn(C4CC5(CCN(C6CC7(C6)CN(c6cc8c(cc6F)c(N6CCC(=O)NC6=O)nn8C)C7)C5)C4)c(=O)c3c2)c1C#N (single isomer, unassigned) [Compound 302, 6-[2-cyano-3-[[ethyl(methyl)sulfamoyl]amino]-6-fluoro-phenoxy]-3-[6-[2-[3-(2,4-dioxohexahydropyrimidin-1-yl)-5-fluoro-1-methyl-indazol-6-yl]-2-azaspiro[3.3]heptan-6-yl]-6-azaspiro[3.4]octan-2-yl]-4-oxo-quinazoline] |  | GI50 (A375-NRAS^Q61K cells): < 1000 nM
< 1000 | < 1000 | 1000 to 10000 | 50 to 90 | CCN(C)S(=O)(=O)Nc1ccc(F)c(Oc2ccc3ncn(C4CC5(CCN(C6CC7(C6)CN(c6cc8c(cc6F)c(N6CCC(=O)NC6=O)nn8C)C7)CC5)C4)c(=O)c3c2)c1F (centres unmarked) [Compound 164, 3-[7-[2-[3-(2,4-dioxohexahydropyrimidin-1-yl)-5-fluoro-1-methyl-indazol-6-yl]-2-azaspiro[3.3]heptan-6-yl]-7-azaspiro[3.5]nonan-2-yl]-6-[3-[[ethyl(methyl)sulfamoyl]amino]-2,6-difluoro-phenoxy]-4-oxo-quinazoline] | 50 to 90 | 
 |  | 1000 to 10000 | 50 to 90 | CCN(C)S(=O)(=O)Nc1ccc(F)c(Oc2ccc3ncn([C@H]4COC5(CCN(C6CC7(C6)CN(c6cc8c(cc6F)c(N6CCC(=O)NC6=O)nn8C)C7)CC5)C4)c(=O)c3c2)c1F [Compound 186, (3R)-8-[2-[3-(2,4-dioxohexahydropyrimidin-1-yl)-5-fluoro-1-methyl-indazol-6-yl]-2-azaspiro[3.3]heptan-6-yl]-3-[6-[3-[[ethyl(methyl)sulfamoyl]amino]-2,6-difluoro-phenoxy]-4-oxo-quinazolin-3-yl]-1-oxa-8-azaspiro[4.5]decane] | > 90 | DC50 (BRAF V600E; read-out: HiBiT-Degradation A375.10 BRAF 2 hours DC50, A375.10 cells, BRAF V600E, 2 hours): < 1000 nM; DC50 (BRAF V600E; read-out: HiBiT-Degradation A375.10 BRAF 2 hours IP, A375.10 cells, BRAF V600E, 2 hours, inflection point): < 1000 nM
